# Activity calls are given as the source filed them. The rule behind the calls is not given here.
# Columns and labels:
# Homo sapiens [1] = species: Homo sapiens; test: Selectivity ratio for human histamine H3 receptor over human histamine H1 receptor
# [2] = Metabolic stability in mouse liver microsomes; type: ADME, Microsome
# Liver microsome [3] = test: Metabolic stability in rat liver microsomes; type: ADME
# Liver microsome [4] = test: Metabolic stability in dog liver microsomes; type: ADME, Canis lupus familiaris
# Homo sapiens [5] = species: Homo sapiens; test: Selectivity ratio for human histamine H3 receptor over human histamine H4 receptor
# [6] = Oral bioavailability in rat; type: ADME, organism-based; details: in vivo
# Histamine H3 receptor [7] = target: Histamine H3 receptor (Rattus norvegicus, UniProt Q9QYN8); test: Displacement of [3H]NAMH from rat histamine H3 receptor transfected in CHO cells; type: cell-based
# Liver microsome [8] = test: Metabolic stability in human liver microsomes; type: ADME
# Histamine H3 receptor [9] = target: T1, Histamine H3 receptor (Homo sapiens, UniProt Q9Y5N1); test: Displacement of [3H]NAMH from human histamine H3 receptor transfected in CHO cells; type: cell-based
# Homo sapiens [10] = species: Homo sapiens; test: Selectivity ratio for human histamine H3 receptor over human histamine H2 receptor
# [11] = Volume of distribution at steady state in rat at 1 mg/kg, iv; type: ADME, organism-based; design: dose 1 mg/kg, route intravenous; details: in vivo, read-out: Vdss
# Rattus norvegicus [12] = test: Enhancement of short term memory in rat social recognition memory model assessed as decrease in investigation ratio at 0.03 to 0.3 mg/kg, po; type: functional, organism-based
# [13] = Oral bioavailability in monkey at 3 mg/kg; type: ADME, organism-based, Macaca mulatta; details: rhesus monkey, in vivo
# Rattus norvegicus [14] = test: Wake promoting activity in ip dosed EEG/EMG rat model assessed as cumulative wake time after 4 hrs; type: functional, organism-based
# [15] = Clearance in rat at 1 mg/kg, iv; type: ADME, organism-based; design: dose 1 mg/kg, route intravenous; details: in vivo
# [16] = AUC in monkey at 3 mg/kg, po; type: ADME, organism-based, Macaca mulatta; design: dose 3 mg/kg, route oral; details: rhesus monkey, plasma
# Cytochrome P450 2D6 = Cytochrome P450 2D6 (Homo sapiens, UniProt P10635); test: Inhibition of CYP2D6 (unknown origin); type: ADME
# [17] = Clearance in monkey at 1 mg/kg, iv; type: ADME, organism-based, Macaca mulatta; design: dose 1 mg/kg, route intravenous; details: rhesus monkey, in vivo
# [18] = AUC in rat at 5 mg/kg, po; type: ADME, organism-based, Plasma; design: dose 5 mg/kg, route oral; details: plasma
# [19] = Solubility of the compound in water at pH 2; type: physicochemical
# Cytochrome P450 2C19 = Cytochrome P450 2C19 (Homo sapiens, UniProt P33261); test: Inhibition of CYP2C19 (unknown origin); type: ADME
# [20] = Half life in monkey liver microsomes; type: ADME, Macaca mulatta, Microsome; details: rhesus monkey
# [21] = Cmax in dog at 3 mg/kg, po; type: ADME, organism-based, Canis lupus familiaris; design: dose 3 mg/kg, route oral; details: in vivo
# Rattus norvegicus [22] = test: Toxicity in EEG/EMG rat model assessed as abnormal behavior at 1 to 30 mg/kg, ip; type: organism-based; design: dose 1-30 mg/kg, route intraperitoneal; details: in vivo
# [23] = Cmax in monkey at 3 mg/kg, po; type: ADME, organism-based, Macaca mulatta; design: dose 3 mg/kg, route oral; details: rhesus monkey, in vivo
# Cytochrome P450 1A2 = target: T2, Cytochrome P450 1A2 (Homo sapiens, UniProt P05177); test: Inhibition of CYP1A2 (unknown origin); type: ADME
# T2 sequence (P05177 whole entry): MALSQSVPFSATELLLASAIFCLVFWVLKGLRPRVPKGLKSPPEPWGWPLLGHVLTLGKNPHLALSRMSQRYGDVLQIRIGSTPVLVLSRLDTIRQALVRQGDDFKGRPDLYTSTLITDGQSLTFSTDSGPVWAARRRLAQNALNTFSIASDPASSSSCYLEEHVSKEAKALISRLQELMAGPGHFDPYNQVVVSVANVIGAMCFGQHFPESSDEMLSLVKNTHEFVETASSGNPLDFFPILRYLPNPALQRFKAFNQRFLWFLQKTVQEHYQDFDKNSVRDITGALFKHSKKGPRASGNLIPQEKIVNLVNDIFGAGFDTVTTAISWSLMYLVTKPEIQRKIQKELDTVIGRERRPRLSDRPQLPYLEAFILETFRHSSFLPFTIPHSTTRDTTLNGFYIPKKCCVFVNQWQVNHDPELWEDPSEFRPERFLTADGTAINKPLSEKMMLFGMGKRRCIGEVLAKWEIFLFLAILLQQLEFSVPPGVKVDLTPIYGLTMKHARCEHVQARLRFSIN
# [24] = Terminal half life in rat at 1 mg/kg, iv; type: ADME, organism-based; design: dose 1 mg/kg, route intravenous; details: in vivo, read-out: beta t1/2 (converted)
# Cytochrome P450 2C9 = Cytochrome P450 2C9 (Homo sapiens, UniProt P11712); test: Inhibition of CYP2C9 (unknown origin); type: ADME
# Rattus norvegicus [25] = test: Wake promoting activity in EEG/EMG rat model assessed as cumulative wake time at 30 mg/kg, ip after 4 hrs (reference value: 86 +/- 7 mins); type: functional; details: route intraperitoneal
# [26] = Volume of distribution at steady state in dog at 1 mg/kg, iv; type: ADME, organism-based, Canis lupus familiaris; design: dose 1 mg/kg, route intravenous; details: in vivo, read-out: Vdss
# [27] = target: Histamine H4 receptor (Homo sapiens) (UniProt Q9H3N8); test: Inhibition of human histamine H4 receptor at 10 uM
# [28] = Plasma protein binding in rat; type: ADME, cell-free; details: read-out: PPB (converted)
# [29] = Plasma protein binding in human; type: ADME, cell-free; details: read-out: PPB (converted)
# [30] = Half life in dog liver microsomes; type: ADME, Canis lupus familiaris
# [31] = Half life in rat liver microsomes; type: ADME
# [32] = AUC in dog at 3 mg/kg, po; type: ADME, organism-based, Canis lupus familiaris; design: dose 3 mg/kg, route oral; details: plasma
# [33] = Ratio of drug uptake in brain to plasma in rat at 10 mg/kg, ip after 6 hrs; type: ADME, organism-based; design: dose 10 mg/kg, route intraperitoneal; details: read-out: BPR
# [34] = Oral bioavailability in dog at 3 mg/kg; type: ADME, organism-based, Canis lupus familiaris; details: in vivo
# [35] = Half life in mouse liver microsomes; type: ADME, Microsome
# [36] = Ratio of drug uptake in brain to plasma in dog at 5 mg/kg, po after 6 hrs; type: ADME, organism-based, Canis lupus familiaris; design: dose 5 mg/kg, route oral; details: read-out: BPR
# [37] = Oral bioavailability in rat at 5 mg/kg; type: ADME, organism-based; details: in vivo
# Rattus norvegicus [38] = test: Toxicity in EEG/EMG rat model assessed as sleep rebound at 1 to 30 mg/kg, ip; type: organism-based; design: dose 1-30 mg/kg, route intraperitoneal; details: in vivo
# [39] = Half life in human liver microsomes; type: ADME
# Rattus norvegicus [40] = test: Toxicity in EEG/EMG rat model assessed as EEG activity at 1 to 30 mg/kg, ip; type: organism-based; design: dose 1-30 mg/kg, route intraperitoneal; details: in vivo
# Rattus norvegicus [41] = test: Wake promoting activity in EEG/EMG rat model assessed as cumulative wake time at 30 mg/kg, ip after 7.5 to 18 hrs relative to vehicle-treated control; type: functional; details: route intraperitoneal
# [42] = Solubility of the compound in water at pH 7.4; type: physicochemical
# [43] = Volume of distribution at steady state in monkey at 1 mg/kg, iv; type: ADME, organism-based, Macaca mulatta; design: dose 1 mg/kg, route intravenous; details: rhesus monkey, in vivo, read-out: Vdss
# [44] = Terminal half life in monkey at 1 mg/kg, iv; type: ADME, organism-based, Macaca mulatta; design: dose 1 mg/kg, route intravenous; details: rhesus monkey, in vivo, read-out: beta t1/2 (converted)
# [45] = Clearance in dog at 1 mg/kg, iv; type: ADME, organism-based, Canis lupus familiaris; design: dose 1 mg/kg, route intravenous; details: in vivo
# Rattus norvegicus [46] = test: Wake promoting activity in EEG/EMG rat model assessed as cumulative wake time at 1 mg/kg, ip after 4 hrs (reference value: 86 +/- 7 mins); type: functional; details: route intraperitoneal
# Histamine H3 receptor [47] = target: T1, Histamine H3 receptor; test: Inverse agonist activity at human histamine H3 receptor by [35S]GTPgammaS binding assay; type: functional
# Rattus norvegicus [48] = test: Wake promoting activity in EEG/EMG rat model assessed as cumulative wake time at 10 mg/kg, ip after 1.5 hrs relative to vehicle-treated control; type: functional; details: route intraperitoneal
# Rattus norvegicus [49] = test: Wake promoting activity in EEG/EMG rat model assessed as cumulative wake time at 10 mg/kg, ip after 4 hrs (reference value: 86 +/- 7 mins); type: functional; details: route intraperitoneal
# [50] = Cmax in rat at 5 mg/kg, po; type: ADME, organism-based; design: dose 5 mg/kg, route oral; details: in vivo
# [51] = Plasma protein binding in dog; type: ADME, cell-free, Canis lupus familiaris; details: read-out: PPB (converted)
# [52] = Apparent permeability across human Caco2 cells; type: ADME, cell-based; details: Caco-2
# Rattus norvegicus [53] = test: Wake promoting activity in EEG/EMG rat model assessed as cumulative wake time at 3 mg/kg, ip after 4 hrs (reference value: 86 +/- 7 mins); type: functional; details: route intraperitoneal
# [54] = Terminal half life in dog at 1 mg/kg, iv; type: ADME, organism-based, Canis lupus familiaris; design: dose 1 mg/kg, route intravenous; details: in vivo, read-out: beta t1/2 (converted)
# Rattus norvegicus [55] = test: Wake promoting activity in EEG/EMG rat model assessed as cumulative wake time at 30 mg/kg, ip after 1.5 hrs relative to vehicle-treated control; type: functional; details: route intraperitoneal
# [56] = target: Histamine H1 receptor (Homo sapiens) (UniProt P35367); test: Inhibition of human histamine H1 receptor at 10 uM
# [57] = target: Histamine H2 receptor (Homo sapiens) (UniProt P25021); test: Inhibition of human histamine H2 receptor at 10 uM
# [58] = target: Voltage-gated inwardly rectifying potassium channel KCNH2 (Homo sapiens, UniProt Q12809); test: Inhibition of human ERG channel by patch clamp technique
# Cytochrome P450 3A4 = Cytochrome P450 3A4 (Homo sapiens, UniProt P08684); test: Inhibition of CYP3A4 (unknown origin); type: ADME
# Rattus norvegicus [59] = test: In vivo inhibition of histamine H3 receptor in ip dosed rat dipsogenia model assessed as inhibition of RAMH-induced dipsogenia; type: functional
# T1 sequence (Q9Y5N1 whole entry): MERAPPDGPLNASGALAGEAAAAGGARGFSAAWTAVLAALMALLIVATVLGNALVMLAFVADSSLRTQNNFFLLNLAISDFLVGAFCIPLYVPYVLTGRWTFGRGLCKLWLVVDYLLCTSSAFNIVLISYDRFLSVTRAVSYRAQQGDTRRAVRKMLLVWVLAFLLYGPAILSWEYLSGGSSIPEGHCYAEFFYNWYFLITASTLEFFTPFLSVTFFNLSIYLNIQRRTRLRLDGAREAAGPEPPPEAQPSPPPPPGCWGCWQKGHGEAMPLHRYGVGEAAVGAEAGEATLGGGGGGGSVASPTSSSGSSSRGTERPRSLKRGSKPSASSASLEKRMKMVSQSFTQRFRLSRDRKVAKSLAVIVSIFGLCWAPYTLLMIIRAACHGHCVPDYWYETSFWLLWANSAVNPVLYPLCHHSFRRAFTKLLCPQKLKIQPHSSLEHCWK
# Chain of Histamine H3 receptor (Rattus norvegicus, UniProt Q9QYN8) (Q9QYN8 whole entry): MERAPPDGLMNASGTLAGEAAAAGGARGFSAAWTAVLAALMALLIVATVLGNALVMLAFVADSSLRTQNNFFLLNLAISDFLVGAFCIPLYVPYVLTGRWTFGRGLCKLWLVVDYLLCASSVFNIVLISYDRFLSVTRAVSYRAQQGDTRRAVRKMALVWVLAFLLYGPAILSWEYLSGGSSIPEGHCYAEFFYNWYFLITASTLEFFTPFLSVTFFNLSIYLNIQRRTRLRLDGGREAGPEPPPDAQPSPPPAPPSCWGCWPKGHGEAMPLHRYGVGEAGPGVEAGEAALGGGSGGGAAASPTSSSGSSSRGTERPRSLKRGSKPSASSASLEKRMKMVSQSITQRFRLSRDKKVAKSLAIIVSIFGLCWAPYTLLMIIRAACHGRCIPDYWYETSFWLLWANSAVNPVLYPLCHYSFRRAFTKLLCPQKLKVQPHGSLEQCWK
# Chain of Cytochrome P450 3A4 (P08684 whole entry): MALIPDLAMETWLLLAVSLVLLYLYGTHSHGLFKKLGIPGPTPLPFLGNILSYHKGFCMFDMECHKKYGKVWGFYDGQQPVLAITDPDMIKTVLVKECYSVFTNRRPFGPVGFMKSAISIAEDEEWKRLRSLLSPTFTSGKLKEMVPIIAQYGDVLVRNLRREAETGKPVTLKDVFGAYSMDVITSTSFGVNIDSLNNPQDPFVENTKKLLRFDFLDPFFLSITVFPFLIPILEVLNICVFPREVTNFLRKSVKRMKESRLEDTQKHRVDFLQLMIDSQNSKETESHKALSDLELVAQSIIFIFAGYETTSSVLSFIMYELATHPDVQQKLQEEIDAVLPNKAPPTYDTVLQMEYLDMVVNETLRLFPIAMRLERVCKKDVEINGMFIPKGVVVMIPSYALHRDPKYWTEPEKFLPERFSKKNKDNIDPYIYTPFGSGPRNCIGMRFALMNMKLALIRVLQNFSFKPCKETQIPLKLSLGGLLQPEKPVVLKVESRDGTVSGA
# Chain of Cytochrome P450 2C9 (P11712 whole entry): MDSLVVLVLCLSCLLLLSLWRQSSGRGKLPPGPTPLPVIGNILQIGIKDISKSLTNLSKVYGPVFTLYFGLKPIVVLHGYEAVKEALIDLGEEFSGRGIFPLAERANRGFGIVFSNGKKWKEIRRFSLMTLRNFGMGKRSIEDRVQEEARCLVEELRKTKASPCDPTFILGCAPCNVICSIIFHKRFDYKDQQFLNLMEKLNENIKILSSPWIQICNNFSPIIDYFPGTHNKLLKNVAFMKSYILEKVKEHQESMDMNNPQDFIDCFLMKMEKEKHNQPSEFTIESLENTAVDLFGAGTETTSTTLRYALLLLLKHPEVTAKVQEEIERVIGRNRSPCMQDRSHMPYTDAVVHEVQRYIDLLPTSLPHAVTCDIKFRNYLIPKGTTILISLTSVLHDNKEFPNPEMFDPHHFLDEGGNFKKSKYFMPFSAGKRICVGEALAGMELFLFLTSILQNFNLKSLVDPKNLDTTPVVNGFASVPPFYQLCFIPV
# Chain of Voltage-gated inwardly rectifying potassium channel KCNH2 (Q12809 whole entry): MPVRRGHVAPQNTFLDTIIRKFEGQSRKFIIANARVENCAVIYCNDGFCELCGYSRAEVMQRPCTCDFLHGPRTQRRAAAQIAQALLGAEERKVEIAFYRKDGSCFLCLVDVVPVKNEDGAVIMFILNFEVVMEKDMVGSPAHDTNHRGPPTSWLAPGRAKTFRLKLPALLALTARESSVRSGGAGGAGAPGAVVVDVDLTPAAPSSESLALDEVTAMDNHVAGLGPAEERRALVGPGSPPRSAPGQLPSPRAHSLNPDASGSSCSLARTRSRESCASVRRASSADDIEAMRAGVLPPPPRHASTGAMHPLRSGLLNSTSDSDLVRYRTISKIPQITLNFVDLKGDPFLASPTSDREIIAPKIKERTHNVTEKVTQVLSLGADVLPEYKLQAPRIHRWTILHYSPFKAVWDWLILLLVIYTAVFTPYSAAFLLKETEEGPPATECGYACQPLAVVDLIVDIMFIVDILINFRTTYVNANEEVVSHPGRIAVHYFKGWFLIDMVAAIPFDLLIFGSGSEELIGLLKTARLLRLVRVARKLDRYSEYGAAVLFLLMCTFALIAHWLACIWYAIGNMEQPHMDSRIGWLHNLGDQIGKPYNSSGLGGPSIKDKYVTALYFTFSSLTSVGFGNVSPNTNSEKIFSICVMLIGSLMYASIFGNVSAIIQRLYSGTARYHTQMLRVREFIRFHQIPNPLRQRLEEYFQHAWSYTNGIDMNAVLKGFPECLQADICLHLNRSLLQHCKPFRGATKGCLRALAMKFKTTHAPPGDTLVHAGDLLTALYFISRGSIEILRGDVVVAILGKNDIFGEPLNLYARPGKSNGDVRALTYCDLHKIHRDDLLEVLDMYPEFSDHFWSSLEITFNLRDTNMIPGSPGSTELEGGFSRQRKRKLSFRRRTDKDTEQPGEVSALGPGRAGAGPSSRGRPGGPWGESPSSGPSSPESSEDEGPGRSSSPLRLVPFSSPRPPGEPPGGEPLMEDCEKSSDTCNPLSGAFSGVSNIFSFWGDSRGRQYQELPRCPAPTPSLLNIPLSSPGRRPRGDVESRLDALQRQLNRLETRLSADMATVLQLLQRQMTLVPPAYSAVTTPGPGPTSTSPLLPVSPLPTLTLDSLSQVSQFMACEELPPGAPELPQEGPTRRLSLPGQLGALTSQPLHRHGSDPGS
# Chain of Histamine H4 receptor (Homo sapiens) (Q9H3N8 whole entry): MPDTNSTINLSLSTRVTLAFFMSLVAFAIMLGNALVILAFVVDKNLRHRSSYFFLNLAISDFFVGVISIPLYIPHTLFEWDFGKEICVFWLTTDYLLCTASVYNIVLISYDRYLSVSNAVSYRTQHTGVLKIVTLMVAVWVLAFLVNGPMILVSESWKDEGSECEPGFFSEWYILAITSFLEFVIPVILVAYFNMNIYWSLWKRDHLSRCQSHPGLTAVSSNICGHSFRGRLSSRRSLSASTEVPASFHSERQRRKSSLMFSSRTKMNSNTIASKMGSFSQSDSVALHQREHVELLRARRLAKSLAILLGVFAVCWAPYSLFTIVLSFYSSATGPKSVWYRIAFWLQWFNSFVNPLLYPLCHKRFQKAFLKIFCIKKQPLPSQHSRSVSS
# Chain of Histamine H1 receptor (Homo sapiens) (P35367 whole entry): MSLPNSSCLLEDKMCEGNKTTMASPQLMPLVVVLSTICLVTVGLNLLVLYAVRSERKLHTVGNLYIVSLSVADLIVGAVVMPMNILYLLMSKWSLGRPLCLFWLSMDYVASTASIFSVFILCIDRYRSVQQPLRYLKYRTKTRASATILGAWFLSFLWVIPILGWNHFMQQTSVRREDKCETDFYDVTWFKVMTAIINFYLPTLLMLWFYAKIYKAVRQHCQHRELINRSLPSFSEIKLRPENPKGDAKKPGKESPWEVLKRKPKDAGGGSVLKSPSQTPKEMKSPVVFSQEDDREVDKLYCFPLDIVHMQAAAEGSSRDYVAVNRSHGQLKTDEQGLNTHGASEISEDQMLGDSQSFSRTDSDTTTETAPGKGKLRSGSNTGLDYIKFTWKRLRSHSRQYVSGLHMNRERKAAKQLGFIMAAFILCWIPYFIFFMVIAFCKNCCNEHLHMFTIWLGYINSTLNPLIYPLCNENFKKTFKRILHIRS
# Chain of Cytochrome P450 2D6 (P10635 whole entry): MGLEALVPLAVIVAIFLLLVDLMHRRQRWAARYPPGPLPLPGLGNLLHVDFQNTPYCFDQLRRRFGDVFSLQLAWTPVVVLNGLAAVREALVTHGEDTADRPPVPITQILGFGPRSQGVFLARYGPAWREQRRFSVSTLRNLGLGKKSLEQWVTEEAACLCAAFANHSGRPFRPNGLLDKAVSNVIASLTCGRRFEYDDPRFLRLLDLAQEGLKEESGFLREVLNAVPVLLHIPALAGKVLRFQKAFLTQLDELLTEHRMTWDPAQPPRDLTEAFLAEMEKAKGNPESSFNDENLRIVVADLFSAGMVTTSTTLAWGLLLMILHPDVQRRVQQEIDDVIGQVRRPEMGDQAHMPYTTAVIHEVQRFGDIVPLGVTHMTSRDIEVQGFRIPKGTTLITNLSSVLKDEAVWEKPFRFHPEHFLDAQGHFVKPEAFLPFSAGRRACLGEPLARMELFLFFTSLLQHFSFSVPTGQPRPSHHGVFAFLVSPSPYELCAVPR
# Chain of Histamine H2 receptor (Homo sapiens) (P25021 whole entry): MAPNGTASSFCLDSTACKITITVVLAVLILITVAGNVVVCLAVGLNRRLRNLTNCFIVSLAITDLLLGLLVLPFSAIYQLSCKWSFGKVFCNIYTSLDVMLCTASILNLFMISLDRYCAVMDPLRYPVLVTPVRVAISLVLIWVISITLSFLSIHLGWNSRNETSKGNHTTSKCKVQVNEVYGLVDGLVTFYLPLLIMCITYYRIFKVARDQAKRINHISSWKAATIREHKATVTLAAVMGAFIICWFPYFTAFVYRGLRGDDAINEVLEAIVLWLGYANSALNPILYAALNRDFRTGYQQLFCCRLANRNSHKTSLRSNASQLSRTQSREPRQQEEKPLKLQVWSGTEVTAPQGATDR
smiles,measurement,setting,value
CN1N=C(c2ccc(OC3CCN(C4CCC4)CC3)cc2)C2CC2C1=O (racemic),Selectivity ratio,Homo sapiens [1],> 1000
same,Stability,[2],Stable
same,Stability,Liver microsome [3],Stable
same,Stability,Liver microsome [4],Stable
same,Selectivity ratio,Homo sapiens [5],> 1000
same,bioavailability,[6],6%
same,Ki,Histamine H3 receptor [7],6.9 nM
same,Stability,Liver microsome [8],Stable
same,Ki,Histamine H3 receptor [9],4 nM
same,Selectivity ratio,Homo sapiens [10],> 1000
O=C1NN=C(c2ccc(OC3CCN(C4CCC4)CC3)cc2)[C@H]2C[C@@H]12,Vd,[11],3.7 L/kg
same,Activity,Rattus norvegicus [12],Active
same,bioavailability,[13],114%
same,Activity,Rattus norvegicus [14],Dose-dependent effect
same,clearance,[15],17 mL/min/kg
same,AUC,[16],7190 ng·h/mL
same,IC50,Cytochrome P450 2D6,> 30000 nM
same,clearance,[17],8 mL/min/kg
same,AUC,[18],8320 ng·h/mL
same,solubility,[19],> 1000 µg/mL
same,IC50,Cytochrome P450 2C19,> 30000 nM
same,half-life,[20],> 0.667 h
same,Cmax,[21],502 ng/mL
same,Activity,Rattus norvegicus [22],Non-toxic
same,Cmax,[23],645 ng/mL
same,IC50,Cytochrome P450 1A2,> 30000 nM
same,half-life,[24],2.6 h
same,IC50,Cytochrome P450 2C9,> 30000 nM
same,Time,Rattus norvegicus [25],217 min
same,Vd,[26],4.1 L/kg
same,inhibition,[27],< 10%
same,fraction unbound,[28],0.23
same,fraction unbound,[29],0.23
same,half-life,[30],> 0.667 h
same,half-life,[31],> 0.667 h
same,AUC,[32],2960 ng·h/mL
same,Kp at 6 h,[33],3.6
same,bioavailability,[34],94%
same,half-life,[35],> 0.667 h
same,Kp at 6 h,[36],5.1
same,bioavailability,[37],92%
same,Activity,Rattus norvegicus [38],Non-toxic
same,Ki,Histamine H3 receptor [7],7.3 nM
same,half-life,[39],> 0.667 h
same,Activity,Rattus norvegicus [40],Non-toxic
same,Time,Rattus norvegicus [41],174 min
same,Ki,Histamine H3 receptor [9],3.8 nM
same,solubility,[42],800 µg/mL
same,Vd,[43],6 L/kg
same,half-life,[44],8.6 h
same,clearance,[45],16 mL/min/kg
same,Time,Rattus norvegicus [46],121 min
same,EC50,Histamine H3 receptor [47],0.4 nM
same,Activity,Rattus norvegicus [48],>90%
same,Time,Rattus norvegicus [49],189 min
same,Cmax,[50],888 ng/mL
same,fraction unbound,[51],0.23
same,Papp,[52],16.4 ×10⁻⁶ cm/s
same,Time,Rattus norvegicus [53],129 min
same,half-life,[54],3 h
same,Activity,Rattus norvegicus [55],90%
same,inhibition,[56],< 10%
same,inhibition,[57],< 10%
same,IC50,[58],14000 nM
same,IC50,Cytochrome P450 3A4,> 30000 nM
same,ED50,Rattus norvegicus [59],0.14 mg/kg
same,inhibition,Rattus norvegicus [59],Dose-dependent effect

# From ChEMBL document CHEMBL3120141, “Discovery of (1R,6S)-5-[4-(1-cyclobutyl-piperidin-4-yloxy)-phenyl]-3,4-diaza-bicyclo[4.1.0]hept-4-en-2-one (R,S-4a): histamine H(3) receptor inverse agonist demonstrating potent cognitive enhancing and wake promoting activity” (Bioorg Med Chem Lett, 2014)
